Holding throughout (type): cell-based
Experiment [1] deals with T1, EcRB1/USP (Drosophila melanogaster, UniProt P34021).
T1 construct: The plasmid encodes a version of EcRB1 that includes 878 amino acids, and deletes the F domain; expressed in transfected cells; host or cells: CHO
T1 sequence (P34021 1-878): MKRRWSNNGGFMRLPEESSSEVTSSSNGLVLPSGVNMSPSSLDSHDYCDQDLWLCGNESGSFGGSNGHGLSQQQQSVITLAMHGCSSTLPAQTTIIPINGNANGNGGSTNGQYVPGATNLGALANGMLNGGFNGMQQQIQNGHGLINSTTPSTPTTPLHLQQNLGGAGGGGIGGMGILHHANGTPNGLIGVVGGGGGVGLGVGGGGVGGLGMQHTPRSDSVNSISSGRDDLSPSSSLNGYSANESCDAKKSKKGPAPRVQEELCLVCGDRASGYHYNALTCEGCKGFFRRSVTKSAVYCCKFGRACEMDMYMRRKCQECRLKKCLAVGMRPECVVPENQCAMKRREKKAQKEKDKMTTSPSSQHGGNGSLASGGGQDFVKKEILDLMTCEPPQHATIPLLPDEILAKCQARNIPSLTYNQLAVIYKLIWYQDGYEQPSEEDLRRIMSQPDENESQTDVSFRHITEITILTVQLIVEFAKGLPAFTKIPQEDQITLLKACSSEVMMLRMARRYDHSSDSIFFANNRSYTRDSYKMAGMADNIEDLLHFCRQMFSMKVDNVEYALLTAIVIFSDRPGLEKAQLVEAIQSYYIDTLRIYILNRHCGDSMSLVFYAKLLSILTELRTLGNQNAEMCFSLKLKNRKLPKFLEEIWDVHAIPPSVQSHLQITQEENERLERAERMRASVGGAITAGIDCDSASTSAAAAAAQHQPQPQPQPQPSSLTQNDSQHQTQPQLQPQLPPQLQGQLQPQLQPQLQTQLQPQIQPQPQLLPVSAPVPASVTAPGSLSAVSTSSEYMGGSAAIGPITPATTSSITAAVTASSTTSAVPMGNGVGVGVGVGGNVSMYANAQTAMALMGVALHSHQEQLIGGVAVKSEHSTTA
T1 sequence (O76202 192-472 partner): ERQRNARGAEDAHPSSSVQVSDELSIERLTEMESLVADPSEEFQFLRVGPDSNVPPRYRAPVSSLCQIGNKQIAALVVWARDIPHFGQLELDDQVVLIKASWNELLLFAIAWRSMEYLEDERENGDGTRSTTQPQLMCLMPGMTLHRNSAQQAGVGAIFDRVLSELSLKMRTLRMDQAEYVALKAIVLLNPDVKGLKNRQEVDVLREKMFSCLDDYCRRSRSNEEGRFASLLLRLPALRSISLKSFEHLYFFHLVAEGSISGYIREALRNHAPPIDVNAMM
The experiment in a line: EcRB1 isoform with USP (VP16CfUSP), (EcRE)5-ΔMTV-LUC in CHO cells. The protocol: (§1) These experiments employed a mammalian cell culture system using Chinese hamster ovary cells (CHO) to evaluate the transcriptional function of Drosophila melanogaster EcR and USP using methods described previously (U.S. Patent Application Publication No: 2005/0049230; Henrich et al, 2003). Cells were seeded in 6-well polypropylene culture plates (Falcon) with 10^5 cells per well on the day prior to transfection. Transfection was subsequently performed using either calcium phosphate (Kitareewan et al., 1996, Mol. Biol. Cell, 7:1153-1196) or a GenePorter reagent (Gene Therapy Systems, Inc; San Diego, Calif.) following manufacturer's protocols. Each well received 1.25 μg of (EcRE)5-ΔMTV-CAT (five copies of the hsp27 EcRE inserted into an mouse mammary tumor virus (MTV) promoter upstream of the chloramphenicol acetyltransferase (CAT) gene) or (EcRE)5-ΔMTV-LUC (the same promoter attached to firefly luciferase), 1.25 μg of pCH111 (SV40 early promoter linked to the β-galactosidase gene) to normalize CAT activity, and 0.25 μg of each expression plasmid (EcR, FXR, RXR, USP) that was tested. The cells were incubated with plasmid DNA for seven hours and then washed with 1×PBS. Muristerone A (murA; Alexis Biochemicals) or 20-hydroxyecdysone (20E; Sigma) dissolved in ethanol to a concentration of 10 mM was diluted as necessary to the final assay concentration (FAC) in 2 ml of fresh incubation medium that was then applied to the cells. Similarly, JHIII (Sigma) was dissolved in dimethyl sulfoxide (DMSO) to a concentration of […] and diluted into the incubation medium to its final assay concentration (20, 40, 80, 160 μM). […] A corresponding volume of ethanol and DMSO were added to control cells for all experiments. For all experiments, the cells were allowed to incubate with the medium for 24 hours before collection and cell lysates were prepared by described methods (Kitareewan et al., 1996). Both β-galactosidase and CAT reporter activity were measured based on previously used methods (Kitareewan et al, 1996). Luciferase assays using luciferrin followed the specifications of the manufacturer.
Transcriptional activity, measured as ^14C-chloramphenicol counts (for measuring CAT activity) or relative luciferase activity (RLU) was quantified for each cell lysate. The counts were then normalized by adjusting for differences in β-galactosidase activity, since β-galactosidase expression is controlled by a constitutive promoter and provides an estimate of cell mass. Data were normalized as fold-induction based on differences in reporter gene activity between hormonally treated and control cells.

For experiment [2], the target named is T2, FXR and USP (Rattus norvegicus, UniProt Q62735).
T2 construct: expressed in transfected cells; host or cells: CHO
T2 sequence (Q62735 1-469): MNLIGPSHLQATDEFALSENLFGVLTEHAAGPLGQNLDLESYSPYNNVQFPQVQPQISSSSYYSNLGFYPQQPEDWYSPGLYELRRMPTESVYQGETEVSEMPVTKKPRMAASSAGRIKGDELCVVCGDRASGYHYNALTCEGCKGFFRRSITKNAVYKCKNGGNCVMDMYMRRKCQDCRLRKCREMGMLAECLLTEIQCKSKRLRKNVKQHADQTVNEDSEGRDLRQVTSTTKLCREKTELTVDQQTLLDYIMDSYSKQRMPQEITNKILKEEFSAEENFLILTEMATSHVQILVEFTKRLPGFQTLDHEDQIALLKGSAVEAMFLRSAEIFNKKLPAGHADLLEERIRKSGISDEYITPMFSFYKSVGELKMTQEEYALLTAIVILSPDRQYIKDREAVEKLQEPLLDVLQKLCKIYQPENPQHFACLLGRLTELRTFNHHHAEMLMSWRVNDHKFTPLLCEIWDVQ
The experiment in a line: FXR with USP, reporter in CHO cells. The protocol: as §1, with “Luciferase assays using luciferrin followed the specifications of the manufacturer.” left out

The target in experiment [3] is T3, VP16dEcR/USP (Drosophila melanogaster, UniProt P34021).
T3 construct: expressed in transfected cells; host or cells: CHO
As to the kind of experiment: VP16dEcR with USP (VP16CfUSP), reporter in CHO cells.
Description: (§2) These experiments employed a mammalian cell culture system using Chinese hamster ovary cells (CHO) to evaluate the transcriptional function of Drosophila melanogaster EcR and USP using methods described previously (U.S. Patent Application Publication No: 2005/0049230; Henrich et al, 2003). Cells were seeded in 6-well polypropylene culture plates (Falcon) with 10^5 cells per well on the day prior to transfection. Transfection was subsequently performed using either calcium phosphate (Kitareewan et al., 1996, Mol. Biol. Cell, 7:1153-1196) or a GenePorter reagent (Gene Therapy Systems, Inc; San Diego, Calif.) following manufacturer's protocols. Each well received 1.25 μg of (EcRE)5-ΔMTV-CAT (five copies of the hsp27 EcRE inserted into an mouse mammary tumor virus (MTV) promoter upstream of the chloramphenicol acetyltransferase (CAT) gene) or (EcRE)5-ΔMTV-LUC (the same promoter attached to firefly luciferase), 1.25 μg of pCH111 (SV40 early promoter linked to the β-galactosidase gene) to normalize CAT activity, and 0.25 μg of each expression plasmid (EcR, FXR, RXR, USP) that was tested. […] Both β-galactosidase and CAT reporter activity were measured based on previously used methods (Kitareewan et al, 1996). […]
(§3) Transcriptional activity, measured as ^14C-chloramphenicol counts (for measuring CAT activity) or relative luciferase activity (RLU) was quantified for each cell lysate. […]

The target of experiment [4] is T4, EcRB1/RXR (Drosophila melanogaster, UniProt P34021).
T4 construct: The plasmid encodes a version of EcRB1 that includes 878 amino acids, and deletes the F domain; expressed in transfected cells; host or cells: CHO
As to the kind of experiment: EcRB1 isoform with RXR, reporter in CHO cells.
Description: as §2, §3

Results on three compounds are retold here after patent publication US8637237B2, “Methods, compositions, and systems for the identification of species-specific or developmental stage-specific insecticides” (The University of North Carolina at Greensboro, priority 2003, dated 2014).

Molecules are shown by their SMILES.

Consider `CC(C)(O)CC[C@@H](O)[C@](C)(O)[C@H]1CC[C@@]2(O)C3=CC(=O)[C@@H]4C[C@@H](O)[C@@H](O)C[C@]4(C)[C@H]3CC[C@]12C` [20E, 20-hydroxyecdysone], for which the “transcriptional response to 20E” value in experiment [1] (EcRB1 + VP16CfUSP, 10 μM 20E) is “consistent and discernible transcriptional response”. Moreover, the “20E (inducibility)” value in experiment [1] (EcRB1/USP, 10 μM 20E) is recorded as “+ ((+) designates a change in transcriptional level that exceeds 2.5-fold)”. In addition, in experiment [2], the “elevation of FXR-mediated activity by ecdysteroid added with JHIII” value is given as “no elevation”.
On to `COC(=O)/C=C(\C)CC/C=C(\C)CC[C@H]1OC1(C)C` [JHIII, juvenile hormone III], for which the “potentiation of murA response by JHIII” value in experiment [1] (EcRB1 + VP16CfUSP, 80 μM JHIII with 0.1 μM murA) is on record as “potentiated”. Also, the “MurA + JHIII (JHIII potentiation)” value in experiment [1] (EcRB1/USP, 0.1 μM murA + 80 μM JHIII) is on record as “+ ((+) indicates observed potentiation that exceeds 2-fold above the levels observed with ecdysteroid alone)”; in experiment [3] (0.1 μM murA + 80 μM JHIII) it was “+ ((+) indicates observed potentiation that exceeds 2-fold above the levels observed with ecdysteroid alone)”; in experiment [4] (0.1 μM murA + 80 μM JHIII) it was “+ ((+) indicates observed potentiation that exceeds 2-fold above the levels observed with ecdysteroid alone)”. For the same compound, the “response of FXR and USP to JHIII” value in experiment [2] (CHO cells) is “low level response”.
`CC(C)CC[C@@H](O)[C@](C)(O)[C@H]1CC[C@@]2(O)C3=CC(=O)[C@]4(O)C[C@@H](O)[C@@H](O)C[C@]4(C)[C@H]3[C@H](O)C[C@]12C` [murA, muristerone A]: in experiment [1] (EcRB1 + VP16CfUSP, 1 μM murA), the “induction by murA” value is recorded as 30-40 fold. The “MurA (inducibility)” value in experiment [1] (EcRB1/USP, 0.1 μM murA) is reported as “+ ((+) designates a change in transcriptional level that exceeds 2.5-fold)”; in experiment [3] (0.1 μM murA) it was “+ ((+) designates a change in transcriptional level that exceeds 2.5-fold)”; in experiment [4] (0.1 μM murA) it was “+ ((+) designates a change in transcriptional level that exceeds 2.5-fold)”. Besides, in experiment [2], the “elevation of FXR-mediated activity by ecdysteroid added with JHIII” value is “no elevation”.
